{"source": "ChEMBL document CHEMBL1126514", "about": "“Thiopene systems. 15. Synthesis and antihypertensive activity of 7- (subsituted benzamido)-6-hydroxythieno[3,2,-b]pyrans as nwe potassium channel activitors” (1993)", "assay_type_in_all_cases": "functional", "key": {"[1]": {"test_system": "Rattus norvegicus", "test": "Dose to produce 30% reduction in mean arterial pressure in rat when administered perorally", "conditions": "Artery, po"}, "[2]": {"test_system": "Rattus norvegicus", "test": "Maximal change in mean arterial blood pressure comparing MAP immediately prior to and up to 240 min after oral dose in rat"}, "[3]": {"test_system": "Rattus norvegicus", "test": "Maximal change in mean arterial blood pressure comparing MAP immediately prior to and up to 240 min after oral dose of 0.3 mgkg of compound in rat"}, "[4]": {"test_system": "Rattus norvegicus", "test": "Maximal change in mean arterial blood pressure comparing MAP immediately prior to and up to 240 min after oral dose of 0.1 mgkg of compound in rat"}, "[5]": {"test_system": "Rattus norvegicus", "test": "Maximal change in mean arterial blood pressure comparing MAP immediately prior to and up to 240 min after oral dose of 1 mgkg of compound in rat"}}, "data": [{"molecule": "CC(=O)c1cc2c(s1)[C@@H](NC(=O)c1ccc([N+](=O)[O-])cc1)[C@H](O)C(C)(C)O2", "values": [{"measurement": "ED30", "setting": "[1]", "result": 0.89, "unit": "mg/kg"}, {"measurement": "Change MAP", "setting": "[2]", "result": 63, "unit": "%"}]}, {"molecule": "CC(=O)c1cc2c(s1)[C@@H](NC(=O)c1ccc(F)cc1)[C@H](O)C(C)(C)O2", "values": [{"measurement": "ED30", "setting": "[1]", "result": 0.059, "unit": "mg/kg"}, {"measurement": "Change MAP", "setting": "[2]", "result": 75, "unit": "%"}]}, {"molecule": "COc1ccc(C(=O)N[C@@H]2c3sc(C(C)=O)cc3OC(C)(C)[C@H]2O)cc1", "values": [{"measurement": "Change MAP", "setting": "[2]", "result": 20, "unit": "%"}]}, {"molecule": "CC1(C)Oc2ccsc2[C@@H](NC(=O)c2ccccc2)[C@@H]1O", "values": [{"measurement": "Change MAP", "setting": "[2]", "result": 35, "unit": "%"}]}, {"molecule": "CC(=O)c1cc2c(s1)[C@@H](NC(=O)c1ccccc1)[C@H](O)C(C)(C)O2", "values": [{"measurement": "ED30", "setting": "[1]", "result": 0.2, "unit": "mg/kg"}, {"measurement": "Change MAP", "setting": "[2]", "result": 55, "unit": "%"}]}, {"molecule": "CC(=O)c1cc2c(s1)[C@@H](NC(=O)c1cccc(Cl)c1)[C@H](O)C(C)(C)O2", "values": [{"measurement": "Change MAP", "setting": "[3]", "result": 17, "unit": "%"}, {"measurement": "Change MAP", "setting": "[2]", "result": 59, "unit": "%"}]}, {"molecule": "CC(=O)c1cc2c(s1)[C@@H](NC(=O)c1ccc(C(F)(F)F)cc1)[C@H](O)C(C)(C)O2", "values": [{"measurement": "Change MAP", "setting": "[2]", "result": 26, "unit": "%"}]}, {"molecule": "CC1(C)Oc2cc([N+](=O)[O-])sc2[C@@H](N2CCCCC2=O)[C@@H]1O", "values": [{"measurement": "Change MAP", "setting": "[4]", "result": 63, "unit": "%"}, {"measurement": "ED30", "setting": "[1]", "result": 0.015, "unit": "mg/kg"}]}, {"molecule": "CC1(C)Oc2cc([N+](=O)[O-])sc2[C@@H](NC(=O)c2ccccc2)[C@@H]1O", "values": [{"measurement": "Change MAP", "setting": "[2]", "result": 38, "unit": "%"}]}, {"molecule": "CC(=O)c1cc2c(s1)[C@@H](NC(=O)c1ccc(Cl)cc1)[C@H](O)C(C)(C)O2", "values": [{"measurement": "ED30", "setting": "[1]", "result": 0.11, "unit": "mg/kg"}, {"measurement": "Change MAP", "setting": "[2]", "result": 60, "unit": "%"}]}, {"molecule": "CC1(C)Oc2ccc(C#N)cc2[C@@H](N2CCCC2=O)[C@@H]1O", "note": "[CROMAKALIM]", "values": [{"measurement": "ED30", "setting": "[1]", "result": 0.19, "unit": "mg/kg"}, {"measurement": "Change MAP", "setting": "[2]", "result": 47, "unit": "%"}]}, {"molecule": "CC(=O)c1cc2c(s1)[C@@H](NC(=O)c1ccc(F)cc1F)[C@H](O)C(C)(C)O2", "values": [{"measurement": "Change MAP", "setting": "[4]", "result": 16, "unit": "%"}, {"measurement": "Change MAP", "setting": "[2]", "result": 59, "unit": "%"}]}, {"molecule": "CC(=O)c1cc2c(s1)[C@@H](NC(=O)c1cccnc1)[C@H](O)C(C)(C)O2", "values": [{"measurement": "Change MAP", "setting": "[2]", "result": 29, "unit": "%"}]}, {"molecule": "CC(=O)c1cc2c(s1)[C@@H](NC(=O)c1cccc([N+](=O)[O-])c1)[C@H](O)C(C)(C)O2", "values": [{"measurement": "Change MAP", "setting": "[5]", "result": 17, "unit": "%"}, {"measurement": "Change MAP", "setting": "[2]", "result": 63, "unit": "%"}]}, {"molecule": "CC1(C)Oc2cc([N+](=O)[O-])sc2[C@@H](NC(=O)c2ccc([N+](=O)[O-])cc2)[C@@H]1O", "values": [{"measurement": "Change MAP", "setting": "[2]", "result": 29, "unit": "%"}]}, {"molecule": "CC(=O)c1cc2c(s1)[C@@H](NC(=O)c1ccc(C)cc1)[C@H](O)C(C)(C)O2", "values": [{"measurement": "Change MAP", "setting": "[2]", "result": 10, "unit": "%"}]}, {"molecule": "CC1(C)Oc2ccc(OC(F)(F)F)cc2[C@@H](N2Cc3ccccc3C2=O)[C@@H]1O", "note": "[CELIKALIM]", "values": [{"measurement": "ED30", "setting": "[1]", "result": 0.5, "unit": "mg/kg"}]}, {"molecule": "CC(=O)c1cc2c(s1)[C@@H](NC(=O)c1ccccc1F)[C@H](O)C(C)(C)O2", "values": [{"measurement": "Change MAP", "setting": "[5]", "result": -17, "unit": "%"}, {"measurement": "Change MAP", "setting": "[2]", "result": 59, "unit": "%"}]}, {"molecule": "CC(=O)c1cc2c(s1)[C@@H](NC(=O)c1ccc(F)c(F)c1)[C@H](O)C(C)(C)O2", "values": [{"measurement": "ED30", "setting": "[1]", "result": 0.099, "unit": "mg/kg"}, {"measurement": "Change MAP", "setting": "[2]", "result": 62, "unit": "%"}]}, {"molecule": "CC1(C)Oc2cc([N+](=O)[O-])sc2[C@@H](N2Cc3ccccc3C2=O)[C@@H]1O", "values": [{"measurement": "ED30", "setting": "[1]", "result": 0.22, "unit": "mg/kg"}]}, {"molecule": "CC(=O)c1cc2c(s1)[C@@H](NC(=O)c1ccco1)[C@H](O)C(C)(C)O2", "values": [{"measurement": "Change MAP", "setting": "[2]", "result": 38, "unit": "%"}]}]}
